From ChEMBL document CHEMBL1146190, “Azadideoxyadenosine: synthesis, enzymology, and anti-HIV activity” (Bioorg Med Chem Lett, 2006)

Experiments:
[1] = test system: Human immunodeficiency virus 1; assay: Antiviral activity against HIV1 NL4-3; assay type: functional, organism-based; settings: Human immunodeficiency virus 1, NL4-3
PBMC = assay: Cytotoxicity against human PBMC; assay type: functional
[2] = test system: Human immunodeficiency virus 1; assay: Antiviral activity against HIV1 TEKI; assay type: functional, organism-based; settings: Human immunodeficiency virus 1, TEKI

## Nc1ncnc2c1ncn2[C@H]1CN[C@@H](CO)C1
[1]
  IC50: 3.11 µM
PBMC
  CC50: 46.6 µM
[2]
  IC50: 3.52 µM

## Cc1cn([C@H]2C[C@H](N=[N+]=[N-])[C@@H](CO)O2)c(=O)[nH]c1=O [ZIDOVUDINE]
PBMC
  CC50: > 1 µM
